Columns and labels:
db/db mouse = experiment: In vivo evaluation on db/db mouse: body weight, glycemia, insulinemia, plasma lipids; settings: 50 mpk per os, 28 days
Procedure: The effect of the compounds according to the invention is evaluated in vivo on the db/db mouse by measuring the body weight evolution, the glucose levels, the insulin levels, the plasma total cholesterol and triglyceride levels, and by analyzing the distribution of cholesterol in different plasma lipoprotein fractions, after 28 days of a per os treatment with compounds according to the invention.
Female db/db mice were kept on a 12 hour/12 hour light/dark cycle at a constant temperature of 20±3° C. After a one week acclimatization period, the mice were weighed and divided into groups of 8 animals selected so as to render uniform the distribution of their body weights and their plasma lipid rates, determined before the experiment. The tested compounds were suspended in carboxymethylcellulose (Sigma C4888) and administered intra-gastric tube feeding once a day for 28 days at the chosen dose. The animals had free access to food and water (standard diet). Taking of food and weight gain are recorded throughout the experiment. At the end of the experiment, the animals were anesthetized after a 4 hour fast, a blood sample was taken using (EDTA) anticoagulant, then the mice were weighed and euthanized. The plasma was separated by centrifugation at 3000 rotations/minute for 20 minutes. The samples were kept at +4° C. The hepatic tissue and skeletal muscle tissue samples were taken and frozen immediately in liquid nitrogen then conserved at −80° C. for later analysis.
Murine plasma glucose is measured out according to an enzyme-colorimetric method using a Glucose RTU kit (Biomérieux). Glucose is transformed into gluconic acid under the action of glucose oxidase; the reaction releases hydrogen peroxide. Hydrogen peroxide is measured according to the Trinder reaction which, under the action of a peroxidase and in the presence of phenol and amino-4-antipyrine, produces water and a colored product, quinoneimine. The color intensity, due to the quinoneimine, is proportional to the amount of glucose present in the sample.
Murine insulin is measured using ELISA method (using the INSKR020 kit from provider Crystal chem.). A microplate is coated with a mouse anti-insulin antibody. Then, the serum to be assayed for insulin is placed onto the plate. A guinea pig anti-insulin antibody is used to recognize the complex formed by the mouse insulin and the anti-insulin monoclonal antibody. Finally an anti-guinea pig antibody labeled with peroxidase is added and bind to the guinea pig anti-insulin antibody. The colorimetric reaction is performed by adding an OPD (ortho phenyl diamine) enzyme substrate. The intensity of the color is proportional to the amount of insulin present in the sample.
Plasma lipid concentrations (total cholesterol and triglycerides) are measured by enzymatic assays (bioMérieux-Lyon-France) according to the provider's recommendations.
The different lipid fractions (VLDL, LDL, HDL) in the plasma were separated using gel-filtration chromatography. Cholesterol concentrations were then measured for each fraction by enzymatic assays (bioMérieux-Lyon-France) according to the provider's recommendations.

[1] = system: PPARs target genes (PDK4, UCP2); experiment: Hepatic and skeletal muscle gene expression by quantitative RT-PCR in db/db mouse; format: in vivo; settings: 50 mpk, 28 days
Procedure: The effectiveness of the compounds according to the invention is also evaluated by measuring, in the hepatic and muscular (skeletal) tissues, the expression of genes involved in lipid and/or glucid metabolism and in energy dissipation. Each level of gene expression is normalized regarding the expression level of the reference gene 36B4 in the hepatic tissue, or regarding the expression level of the reference gene 18S in the gastrocnemius skeletal muscle. The induction factor, i.e. the ratio between the relative signal (induced by the compound according to the invention) and the average of the relative values obtained with the control group, is then calculated. The higher the induction factor is, the more the greater the compound promotes gene expression. The final result is represented as the average of the induction values obtained with each experimental group. • FIG. 4-8: Expression of PDK4 in the hepatic tissue of the db/db mouse, after 28 days of treatment with compound 1 and compound 3, administered at 50 mpk • FIG. 4-9: Expression of UCP2 (uncoupling protein 2) in the skeletal muscle tissue of the db/db mouse, after 28 days of treatment with compound 1 and compound 3, administered at 50 mpk
Total RNA was extracted from liver fragments by using a NucleoSpin® 96 RNA kit (Macherey Nagel, Hoerdt, France) according to the manufacturer's instructions.
Total RNA was extracted from gastrocnemius skeletal muscle fragments by using a RNeasy® Fibrous Tissue kit (Qiagen) according to the manufacturer's instructions.
1 μg of total RNA (quantified by spectrophotometry) was then reverse-transcripted into complementary DNA by means of a 1 hour reaction at 37° C. in a total volume of 20 μl containing a 1× buffer (Sigma), 1.5 mM of DTT, 0.18 mM of dNTPs (Promega), 200 ng of pdN6 (Amersham), 30 U of RNase inhibitor (Sigma), and 1 μl of MMLV-RT (Sigma).
The PCR quantitative experiments were carried out using the MyiQ Single-Color Real-Time PCR Detection System (Biorad, Marnes-la-Coquette, France) and were performed using the iQ SYBR Green Supermix kit according to the provider's recommendations, in 96-well plates in 5 μl of a diluted reverse-transcription solution at a hybridization temperature of 55° C. The specific primer pairs of the genes being studied were used:
The amount of fluorescence emitted is directly proportional to the amount of complementary DNA present at the beginning of the reaction and amplified during the PCR. For each target studied, a range of solutions is performed with successive dilutions of mixtures of a few microliters of different reverse-transcription solutions. The relative levels of expression of each target are thus determined by using efficiency curves obtained with the points relative to the range of PCR solutions. […]

SMILES: Cc1cc(CCC(=O)c2ccc(OC(F)(F)F)cc2)cc(C)c1OC(C)(C)C(=O)O [Compound 1, 2-[2,6-dimethyl-4-[3-[4-(trifluoromethyloxy)phenyl]-3-oxo-propyl]phenoxy]-2-methyl-propanoic acid]
- HDL-cholesterol fraction (distribution of cholesterol in plasma lipoprotein fractions) (db/db mouse): significant increase
- glycemia (plasma glucose) (db/db mouse): significantly reduced
- insulinemia (plasma insulin) (db/db mouse): significantly reduced
- body weight gain (db/db mouse; vs control): weight loss
- plasma free fatty acids (db/db mouse; vs control): very significantly decreased
- plasma triglycerides (db/db mouse; vs control): very significantly decreased
- total plasma cholesterol (db/db mouse; vs control): significantly increased
- expression of the gene coding for UCP2 in the skeletal muscle ([1]; gastrocnemius skeletal muscle): reduction
- hepatic expression of the gene coding for PDK4 ([1]; hepatic tissue): significant increase

From patent US8188148B2, “Substituted 1,3-diphenylpropane derivatives, preparations and uses thereof” (Genfit, priority 2006, dated 2012)
